According to patent publication US20150299219A1, “BICYCLIC PYRAZOLONE COMPOUNDS AND METHODS OF USE” (Calitor Sciences, LLC, priority 2014, published 2015):

What was measured:
[1] = Pharmacokinetic profiles in rats; type: in vivo; conditions: for clearance (CL) / AUC(0-t) / half-life / Vd: iv dosing, 1 mg/kg; for AUC(0-t) / half-life / Vd / bioavailability: rat, plasma; for Vd: read-out: Vss; for bioavailability: po, bioavailability (F)
Description: The LC/MS/MS system used in the analysis consists of an Agilent 1200 Series vacuum degasser, binary pump, well-plate autosampler, thermostatted column compartment, the Agilent G6430 Triple Quadrupole Mass Spectrometer with an electrosprayionization (ESI) source. Quantitative analysis was carried out using MRM mode. The parameters for MRM transitions are in the Table A.
An Agilent XDB-C18, 2.1×30 mm, 3.5 μM column was used for the analysis. 5 μL of the samples were injected. Analysis condition: The mobile phase was 0.1% formic acid in water (A) and 0.1% formic acid in methanol (B). The flow rate was 0.4 mL/min. And the gradient of Mobile phase was in the Table B.
Alternatively, an Agilent 6330 series LC/MS/MS spectrometer equipped with G1312A binary pumps, a G1367A autosampler and a G1314C UV detector were used in the analysis. An ESI source was used on the LC/MS/MS spectrometer. The analysis was done in positive ion mode as appropriate and the MRM transition for each analyte was optimized using standard solution. A Capcell MP-C18 100×4.6 mm I.D., […] column (Phenomenex, Torrance, Calif., USA) was used during the analysis. The mobile phase was 5 mM ammonia acetate, 0.1% MeOH in water (A): 5 mM ammonia acetate, 0.1% MeOH in acetonitrile (B) (70/30, v/v). The flow rate was 0.6 mL/min. Column was maintained at ambient temperature. 20 μL of the samples were injected.
The compounds disclosed herein are assessed in pharmacokinetic studies in mice, rats, dogs or monkeys. The compounds are administered as a water solution, 2% HPMC+1% TWEEN®80 in water solution, 5% DMSO+5% solutol in saline, 4% MC suspension or capsule. For the intravenous administration, the animals are generally given at 1 or 2 mg/kg dose. For the oral (p.o.) dosing, mice and rats are generally given 5 or 10 mg/kg dose, and dogs and monkeys are generally given 10 mg/kg dose. The blood samples (0.3 mL) are drawn at 0.25, 0.5, 1.0, 2.0, 3.0, 4.0, 6.0, 8.0, 12 and 24 h time points or 0.083, 0.25, 0.5, 1.0, 2.0, 4.0, 6.0, 8.0 and 24 h time points and centrifuged at 3,000 or 4000 rpm for 2 to 10 min. The plasma solutions are collected, and stored at −20° C. or −70° C. until analyzed by LC/MS/MS as described above.

[2] = Compound stability in human liver microsomes; type: in vitro ADME; conditions: for half-life: pH 7.4, 0.5 mg protein/mL; for half-life / T1/2: NADPH, 37° C.; for CLint scaled: pH 7.4, in vivo CLint extrapolated; for T1/2: 0.5 mg protein/mL
Description: (§1) Human or rat liver microsomes incubations were conducted in duplicate in polypropylene tubes. The typical incubation mixtures consisted of human or rat liver microsomes (0.5 mg protein/mL), compounds of interest (5 μM) and NADPH (1.0 mM) in a total volume of 200 μL potassium phosphate buffer (PBS, 100 mM, pH 7.4). Compounds were dissolved in DMSO and diluted with PBS such that the final concentration of DMSO was 0.05%. The enzymatic reactions were commenced with the addition of protein after a 3-min preincubation and incubated in a water bath open to the air at 37° C. Reactions were terminated at various time points (0, 5, 10, 15, 30, 60 min) by adding equal volume of ice-cold acetonitrile. The samples were stored at −80° C. until LC/MS/MS assays.
(§2) The concentrations of compounds in the incubation mixtures of human or rat liver microsomes were determined by a LC/MS/MS method. The ranges of the linearity in the concentration range were determined for each tested compounds.
(§3) A parallel incubation was performed using denatured microsomes as the negative control, and reactions were terminated at various time points (0, 15, 60 min) after incubation at 37° C.
(§4) Dextromethorphan (70 μM) was selected as the positive control, and reactions were terminated at various time points (0, 5, 10, 15, 30, 60 min) after incubation at 37° C. Both positive and negative control samples were included in each assay to ensure the integrity of the microsomal incubation system.
(§5) Alternatively, the stability of some of the compounds disclosed herein in human (or rat) liver microsomes were also conducted in the following protocol. The incubations were conducted in duplicate in polypropylene tubes. The typical incubation mixtures consisted of liver microsomes (final concentration: 0.5 mg protein/mL), compounds (final concentration: 1.5 μM) in a total volume of 30 μL K-buffer (contain 1.0 mM EDTA, 100 mM, pH7.4). Compounds were dissolved in DMSO and diluted with K-buffer such that the final concentration of DMSO was 0.2%. The enzymatic reactions were commenced with the addition of 15 μL of NADPH (final concentration: 2 mM) after 10 min preincubation and incubated in a 37° C. incubator. Reactions were terminated at various time points (0, 15, 30, 60 min) by adding 135 μL acetonitrile (contain IS). Protein is removed by centrifugation with 4000 rpm, 10 min. Supernatant was collected for LCMS/MS analysis
(§6) In the above protocol, ketanserin (1 μM) was selected as the positive control, and reactions were terminated at various time points (0, 15, 30, 60 min) after incubation at 37° C. The positive control sample was included in each assay to ensure the integrity of the microsomal incubation system.
(§7) The concentrations of compounds in human or rat liver microsome incubations were plotted as a percentage of the relevant zero time point control for each reaction. The in vivo CLint were extrapolated (ref: Naritomi, Y.; Terashita, S.; Kimura, S.; Suzuki, A.; Kagayama, A.; and Sugiyama, Y.; Prediction of human hepatic clearance from in vivo animal experiments and in vitro metabolic studies with liver microsomes from animals and humans. Drug Metab. Dispos., 2001, 29: 1316-1324).

[3] = Compound stability in rat liver microsomes; type: in vitro ADME; conditions: for half-life: pH 7.4, 0.5 mg protein/mL, NADPH, 37° C.; for CLint scaled: pH 7.4, in vivo CLint extrapolated
Description: as §1, §2, §3, §4, §5, §6, §7

Row | SMILES | clearance (CL) [1] | AUC(0-t) [1] | half-life [1] | Vd [1] | bioavailability [1] | half-life [2] | CLint scaled [2] | half-life [3] | CLint scaled [3] | T1/2 [2]
1 | O=C(Nc1ccc(Oc2ccnc(NC(=O)C3CC3)c2)cc1)c1c2n(n(-c3ccccc3)c1=O)CCC2 [Ex. 2, N-(4-((2-(cyclopropanecarboxamido)pyridin-4-yl)oxy)phenyl)-2-oxo-1-phenyl-2,4,5,6-tetrahydro-1H-pyrrolo[1,2-b]pyrazole-3-carboxamide] | 0.55 mL/min/kg | 27200 ng·h/mL | 7.71 h | 0.313 L/kg | 68.1% | 4.07 h | 7.13 mL/min/kg | 3.19 h | 13 mL/min/kg | 
2 | O=C(Nc1ccc(Oc2ccnc(NC(=O)C3CC3)c2)cn1)c1c2n(n(-c3ccccc3)c1=O)CCC2 [Ex. 14, N-(5-((2-(cyclopropanecarboxamido)pyridin-4-yl)oxy)pyridin-2-yl)-2-oxo-1-phenyl-2,4,5,6-tetrahydro-1H-pyrrolo[1,2-b]pyrazole-3-carboxamide] | 1.27 mL/min/kg | 12900 ng·h/mL | 5.01 h | 0.359 L/kg | 87.9% | 8.47 h | 3.42 mL/min/kg | 3.32 h | 12.5 mL/min/kg | 
3 | CC(=O)Nc1cc(Oc2ccc(NC(=O)c3c4n(n(-c5ccccc5)c3=O)CCOC4)nc2)ccn1 [Ex. 12, N-(5-((2-acetamidopyridin-4-yl)oxy)pyridin-2-yl)-2-oxo-1-phenyl-2,4,6,7-tetrahydro-1H-pyrazolo[5,1-c][1,4]oxazine-3-carboxamide] | 0.333 mL/min/kg | 46700 ng·h/mL | 6.68 h | 0.136 L/kg | 72.1% |  |  | 16.6 h | 2.49 mL/min/kg | ∞
4 | O=C(Nc1ccc(Oc2ccnc(NC(=O)C3CC3)c2)cc1)c1c2n(n(-c3ccccc3)c1=O)CCOC2 [Ex. 19, N-(4-((2-(cyclopropanecarboxamido)pyridin-4-yl)oxy)phenyl)-2-oxo-1-phenyl-2,4,6,7-tetrahydro-1H-pyrazolo[5,1-c][1,4]oxazine-3-carboxamide] | 0.3 mL/min/kg | 50100 ng·h/mL | 7.09 h | 0.15 L/kg | 66.7% |  |  | 2.87 h | 14.4 mL/min/kg | ∞
5 | CC(=O)Nc1cc(Oc2ccc(NC(=O)c3c4n(n(-c5ccccc5)c3=O)CCC4)cc2)ccn1 [Ex. 3, N-(4-((2-acetamidopyridin-4-yl)oxy)phenyl)-2-oxo-1-phenyl-2,4,5,6-tetrahydro-1H-pyrrolo[1,2-b]pyrazole-3-carboxamide] | 0.65 mL/min/kg | 26300 ng·h/mL | 3.83 h | 0.18 L/kg | 94.5% | 32.2 h | 0.9 mL/min/kg | 5.7 h | 7.26 mL/min/kg | 
